Consider three molecules from ChEMBL document CHEMBL1145702, “(+)-Angchibangkine, a new type of bisbenzylisoquinoline alkaloid, and other dimers from Pachygone dasycarpa” (J Nat Prod, 1997).

In brackets after ≈: the same amount, converted by molar mass.

The subject of assay [1] is Plasmodium falciparum. The assay can be described thus: Antiplasmodial activity against chloroquine-resistant Plasmodium falciparum W2 as [3H]hypoxanthine uptake. Format: functional, organism-based.
Assay [2] has as its system KB. The assay can be described thus: Cytotoxicity against human KB cells. Format: functional, cell-based.
The test system of assay [3] is Plasmodium falciparum. The assay is described as follows: Antiplasmodial activity against chloroquine-sensitive Plasmodium falciparum D6 as [3H]hypoxanthine uptake. In kind it is functional, organism-based.

One may read the IC50 as the concentration needed to halve the response being measured. A high value points to a need for much substance. Regarding `COc1ccc2cc1Oc1ccc(cc1)C[C@H]1c3c(cc(O)c4c3Oc3cc5c(cc3O4)CCN(C)[C@H]5C2)CCN1C`, the values for the 50% inhibitory concentration (IC50) in assay [1], in assay [2] and in assay [3] were 0.063 µg/mL (≈ 0.112 µM), 3.4 µg/mL (≈ 6.04 µM) and 0.0171 µg/mL (≈ 0.0304 µM), respectively.

Consider `COc1ccc2cc1Oc1ccc(cc1)C[C@H]1c3cc4c(cc3CCN1C)Oc1c(OC)cc3c(c1O4)[C@H](C2)N(C)CC3`, for which the values for the IC50 in assay [1], in assay [2] and in assay [3] were 0.204 µg/mL (≈ 0.354 µM), 5.9 µg/mL (≈ 10.2 µM) and 0.326 µg/mL (≈ 0.565 µM), respectively.

Regarding `COc1cc2c3c4c1Oc1cc5c(cc1O4)[C@H](Cc1ccc(cc1)Oc1cc(ccc1O)C[C@@H]3N(C)CC2)N(C)CC5`, the figures for the IC50 in assay [1], in assay [2] and in assay [3] were 0.265 µg/mL (≈ 0.471 µM), 12 µg/mL (≈ 21.3 µM) and 0.306 µg/mL (≈ 0.544 µM), respectively.
